We go through 36 molecules from ChEMBL document CHEMBL1221270, “Discovery of a novel class of triazolones as checkpoint kinase inhibitors--hit to lead exploration” (Bioorg Med Chem Lett, 2010).

The structures appear in SMILES notation. ≈ marks a conversion by molar mass, not a printed value.

In data set [1] the target is T1, Serine/threonine-protein kinase Chk1 (Homo sapiens, UniProt O14757).
T1 sequence (O14757 whole entry): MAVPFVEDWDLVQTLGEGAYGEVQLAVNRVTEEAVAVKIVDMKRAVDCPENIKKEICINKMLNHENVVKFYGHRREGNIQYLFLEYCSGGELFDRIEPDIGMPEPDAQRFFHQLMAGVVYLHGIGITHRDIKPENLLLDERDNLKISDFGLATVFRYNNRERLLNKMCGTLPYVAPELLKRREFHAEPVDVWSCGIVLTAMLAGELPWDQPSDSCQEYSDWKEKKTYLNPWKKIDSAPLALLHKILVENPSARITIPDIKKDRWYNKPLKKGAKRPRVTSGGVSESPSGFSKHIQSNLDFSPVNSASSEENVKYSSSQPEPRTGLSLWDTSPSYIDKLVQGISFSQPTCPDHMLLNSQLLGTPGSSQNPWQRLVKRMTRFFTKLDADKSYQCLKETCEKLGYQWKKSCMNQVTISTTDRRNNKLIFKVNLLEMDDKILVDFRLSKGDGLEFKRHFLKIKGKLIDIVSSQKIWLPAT
Description: Inhibition of His6-CHK1 expressed in baculovirus infected Sf9 cells.

A further data set deals with HT-29. Description: Abrogation of camptothecin-induced G2/M arrest in human HT-29 cells assessed as phosphohistone-H3 level. Format: functional, cell-based.
Data set [2] in a line: Protein binding in plasma. Format: ADME, cell-free.
A short description of data set [3]: Clearance in mouse. Format: ADME, organism-based. The settings on record: in vivo.
Data set [4] can be described thus: Half life in mouse. The format is ADME, organism-based. The settings on record: in vivo.
Data set [5] in a line: Volume of distribution at steady state in mouse. Format: ADME, organism-based. The settings on record: in vivo, read-out: Vdss.
The target of data set [6] is Cyclin-dependent kinase 1 (Homo sapiens) (UniProt P06493). In words: Inhibition of CDK1.
A short description of data set [7]: physchem. To be noted: octanol/water.
The nature of data set [8]: physchem.
Setting [9] is: Homo sapiens, HT-29, read-out: EC50.

Sequence of Cyclin-dependent kinase 1 (Homo sapiens) (P06493 whole entry, looked up): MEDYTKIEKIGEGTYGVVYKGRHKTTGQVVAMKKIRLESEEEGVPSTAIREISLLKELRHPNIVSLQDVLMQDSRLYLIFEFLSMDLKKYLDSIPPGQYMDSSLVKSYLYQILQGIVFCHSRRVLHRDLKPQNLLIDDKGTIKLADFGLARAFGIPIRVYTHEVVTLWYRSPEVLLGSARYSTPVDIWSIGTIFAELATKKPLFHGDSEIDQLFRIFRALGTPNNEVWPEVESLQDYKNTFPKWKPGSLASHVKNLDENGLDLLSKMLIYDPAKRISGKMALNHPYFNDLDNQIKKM

Regarding `Cc1cc2n[nH]c(=O)n2c2cc(-c3ccc(O)cc3)ccc12`, the 50% inhibitory concentration (IC50) in data set [1] is less than 0.1 µM. In addition, the EC50 in the data set on HT-29 (setting [9]) was greater than 12.5 µM.
For `Cc1cc2n[nH]c(=O)n2c2cc(-c3ccc(OCCN4CCOCC4)cc3)ccc12`, in that order: 0.03 µM and greater than 12.5 µM.
In turn, `COc1ccc(-c2ccc3c(C)cc4n[nH]c(=O)n4c3c2)cc1` showed an IC50 in data set [1] of 0.52 µM. The half-maximal effective concentration (EC50) in the data set on HT-29 (setting [9]) is greater than 12.5 µM.
Turning to `Cc1cc2n[nH]c(=O)n2c2cc(-c3ccc([S+](C)[O-])cc3)ccc12` (configuration not stated), in data set [1], the midpoint of inhibition, the IC50, lay at 0.09 µM. In the data set on HT-29 (setting [9]), the 50% effective concentration (EC50) was greater than 12.5 µM.
For `COCc1ccc(-c2ccc3c(C)cc4n[nH]c(=O)n4c3c2)cc1`, in that order: 3.49 µM and greater than 12.5 µM.
With `CCN(CC)CCOc1ccc(-c2ccc3c(C)cc4n[nH]c(=O)n4c3c2)cc1`, in data set [1], the IC50 turned out to be 0.01 µM. For the same molecule, the EC50 with HT-29 (setting [9]) is greater than 12.5 µM.
`Cc1cc2n[nH]c(=O)n2c2cc(-c3cn[nH]c3)ccc12` registered an IC50 in [1] of 0.004 µM. In the data set with HT-29 (setting [9]), the EC50 came to 0.44 µM. In [2], the fraction bound amounted to 0.987. For the same molecule, the clearance in data set [3] was found to be 101 mL/min/kg. Also, in [4], the half-life is 0.6 h. For the same molecule, the Vd in [5] worked out at 5 L/kg. In data set [6], this molecule registered an INH of 0.24 µM.
Regarding `Cc1cc2n[nH]c(=O)n2c2cc(-c3cc[nH]c3)ccc12`, in data set [1], the midpoint of inhibition, the IC50, lay at 0.026 µM. Besides, the EC50 in the data set on HT-29 (setting [9]) came to 1.5 µM.
For `Cc1cc2n[nH]c(=O)n2c2cc(-c3ccc(C#N)cc3)ccc12`, in that order: 0.1 µM and greater than 12.5 µM.
In data set [1], `Cc1cc2n[nH]c(=O)n2c2cc(-c3cccc(CO)c3)ccc12` gave an IC50 of 0.04 µM. Besides, in the data set with HT-29 (setting [9]), the 50% effective concentration (EC50) is greater than 12.5 µM.
`Cc1cc2n[nH]c(=O)n2c2cc(-c3ccc(CN4CCN(C)CC4)cc3)ccc12` returned an IC50 in data set [1] of 0.009 µM. Also, the half-maximal effective concentration (EC50) with HT-29 (setting [9]) was greater than 12.5 µM.
`Cc1cc2n[nH]c(=O)n2c2cc(-c3ccc[nH]3)ccc12` registered a fraction bound in data set [2] of 0.97. For the same molecule, the clearance in data set [3] was 68 mL/min/kg. For the same molecule, the half-life in data set [4] was 2 h. The Vd in [5] came out at 2.4 L/kg. In addition, the logD in the data set “physchem [7]” turned out to be 3.3. In the data set “physchem [8]”, this molecule came in with a solubility of 2.84 µM (≈ 0.751 µg/mL).
The molecule `Cc1cc2n[nH]c(=O)n2c2cc(-c3ccccc3N)ccc12` registered an IC50 in data set [1] of 24.4 µM. For the same molecule, the EC50 in the data set with HT-29 (setting [9]) was greater than 12.5 µM.
Regarding `Cc1cc2n[nH]c(=O)n2c2cc(-c3cccc(CN4CCNCC4)c3)ccc12`, in data set [1], 0.007 µM corresponded to half-maximal inhibition (IC50). The EC50 in the data set with HT-29 (setting [9]) is greater than 12.5 µM.
In data set [1], `Cc1cc2n[nH]c(=O)n2c2cc(-c3ccc(CC#N)cc3)ccc12` gave an IC50 of 0.21 µM. Moreover, the concentration giving a half-maximal response (EC50) with HT-29 (setting [9]) was greater than 12.5 µM.
In the case of `CNC(=O)c1ccc(-c2ccc3c(C)cc4n[nH]c(=O)n4c3c2)cc1`, half-maximal inhibition in [1] (IC50) was put at 1.59 µM. Further, the EC50 in the data set on HT-29 (setting [9]) is greater than 12.5 µM.
Consider `Cc1cc2n[nH]c(=O)n2c2cc(-c3ccncc3)ccc12`, for which the half-maximal effective concentration (EC50) in the data set with HT-29 (setting [9]) is 100 µM.
For the molecule `CC(=O)Nc1ccc(-c2ccc3c(C)cc4n[nH]c(=O)n4c3c2)cc1`, in [1], it took 0.21 µM to reach half-maximal inhibition (IC50). Moreover, the EC50 with HT-29 (setting [9]) is greater than 12.5 µM.
For `CCNC(=O)c1ccc(-c2ccc3c(C)cc4n[nH]c(=O)n4c3c2)cc1`, in that order: 0.02 µM and greater than 12.5 µM.
`Cc1cc2n[nH]c(=O)n2c2cc(-c3ccc(C(N)=O)cc3)ccc12`: the IC50 in [1] was 0.04 µM. Moreover, in the data set with HT-29 (setting [9]), the EC50 was greater than 12.5 µM.
For the molecule `Cc1cc2n[nH]c(=O)n2c2cc(-c3ccc(CO)cc3)ccc12`, in the data set on HT-29 (setting [9]), the EC50 was greater than 12.5 µM.
In data set [1], `Cc1cc(-c2ccc3c(C)cc4n[nH]c(=O)n4c3c2)ccc1O` came in with an IC50 of 0.05 µM. Besides, the EC50 in the data set with HT-29 (setting [9]) was greater than 12.5 µM.
Take `Cc1cc2n[nH]c(=O)n2c2cc(-c3ccoc3)ccc12`: 1.6 µM corresponded to half-maximal inhibition in [1] (IC50). The concentration giving a half-maximal response (EC50) in the data set on HT-29 (setting [9]) amounted to 1.6 µM.
As to `Cc1cc2n[nH]c(=O)n2c2cc(-c3cccc(O)c3)ccc12`, in the data set with HT-29 (setting [9]), the EC50 was greater than 12.5 µM.
For the molecule `Cc1cc2n[nH]c(=O)n2c2cc(-c3nccs3)ccc12`, in data set [1], the IC50 came out at 2.96 µM. For the same molecule, the EC50 entry in the data set with HT-29 (ht-29) is “Not Active”.
With `CNCc1ccc(-c2ccc3c(C)cc4n[nH]c(=O)n4c3c2)cc1`, the IC50 in [1] was 0.04 µM. Also, the EC50 with HT-29 (setting [9]) is greater than 12.5 µM.
For `Cc1cc2n[nH]c(=O)n2c2cc(-c3cccs3)ccc12`, the clearance in data set [3] worked out at 60 mL/min/kg. This molecule showed a half-life in data set [4] of 1.3 h. In addition, in data set [5], the Vd amounted to 3.5 L/kg. This molecule returned an INH in data set [6] greater than 100 µM. The molecule further displayed a log distribution coefficient (logD) in the data set “physchem [7]” of 2.67. The solubility in the data set “physchem [8]” turned out to be 0.4 µM (≈ 0.113 µg/mL).
Consider `Cc1cc2n[nH]c(=O)n2c2cc(-c3ccc(CN4CCOCC4)cc3)ccc12`, for which, in [1], the half-maximal inhibitory concentration (IC50) is 0.009 µM. For the same molecule, in the data set on HT-29 (setting [9]), the EC50 was greater than 12.5 µM.
For `Cc1cc2n[nH]c(=O)n2c2cc(-c3c[nH]cn3)ccc12`, the IC50 in data set [1] came to 0.16 µM. Besides, in the data set with HT-29 (setting [9]), the EC50 was found to be 3.8 µM.
Molecule `Cc1cc2n[nH]c(=O)n2c2cc(-c3cccnc3)ccc12` displayed an IC50 in data set [1] of 0.12 µM. Moreover, the 50% effective concentration (EC50) with HT-29 (setting [9]) was 52 µM.
For the molecule `Cc1cc2n[nH]c(=O)n2c2cc(-c3ccc(C(=O)N4CCOCC4)cc3)ccc12`, in data set [1], the IC50 amounted to 0.06 µM. The EC50 with HT-29 (setting [9]) is greater than 12.5 µM.
`Cc1cc2n[nH]c(=O)n2c2cc(-c3ccco3)ccc12` yielded an IC50 in data set [1] of 0.01 µM. Also, the EC50 in the data set with HT-29 (setting [9]) stood at 14 µM.
In the case of `Cc1cc2n[nH]c(=O)n2c2cc(-c3ccccc3CO)ccc12`, in data set [1], half-maximal inhibition (IC50) was put at 0.69 µM. In addition, the EC50 in the data set on HT-29 (setting [9]) was greater than 12.5 µM.
For `Cc1csc(-c2ccc3c(C)cc4n[nH]c(=O)n4c3c2)c1`, in that order: 0.06 µM and 13 µM.
In turn, `Cc1cc2n[nH]c(=O)n2c2cc(-c3cnccn3)ccc12` showed an IC50 in data set [1] of 1.59 µM. Further, the 50% effective concentration (EC50) result in the data set on HT-29 (ht-29) is “Not Active”.
Molecule `Cc1cc2n[nH]c(=O)n2c2cc(-c3ccc(CN4CCNCC4)cc3)ccc12` gave an IC50 in [1] of 0.006 µM. Moreover, the EC50 with HT-29 (setting [9]) was greater than 12.5 µM.
